The results in this text go back to paper PMC3234597, “Two Panels of Steroid Receptor Luciferase Reporter Cell Lines for Compound Profiling” (Combinatorial Chemistry & High Throughput Screening, 2011).

Holding throughout (type): cell-based
One test deals with T1, PR-LBD fused to Gal4-DBD (Homo sapiens, UniProt P06401).
T1 construct: PR-LBD region was PCR amplified using the following primer combination; host or cells: U2OS
T1 sequence (P06401 679-913 limits assumed): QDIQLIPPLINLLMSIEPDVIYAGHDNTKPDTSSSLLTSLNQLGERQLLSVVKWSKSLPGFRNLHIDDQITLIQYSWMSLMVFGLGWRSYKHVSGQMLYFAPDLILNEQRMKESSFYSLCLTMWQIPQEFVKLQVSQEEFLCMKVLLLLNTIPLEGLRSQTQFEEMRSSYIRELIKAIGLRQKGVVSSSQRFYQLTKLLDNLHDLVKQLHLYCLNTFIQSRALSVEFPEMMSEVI
As to the kind of experiment: U2OS-PR-LBD/9xGal4UAS luciferase reporter cell line.

Test [1] addresses T2, AR-LBD fused to Gal4-DBD (co-expressed with full-length AR) (Homo sapiens, UniProt P10275).
T2 construct: the following primers were used for the amplification of the LBD region; expressed in transfected cells; host or cells: U2OS
T2 sequence (P10275 669-900 limits assumed): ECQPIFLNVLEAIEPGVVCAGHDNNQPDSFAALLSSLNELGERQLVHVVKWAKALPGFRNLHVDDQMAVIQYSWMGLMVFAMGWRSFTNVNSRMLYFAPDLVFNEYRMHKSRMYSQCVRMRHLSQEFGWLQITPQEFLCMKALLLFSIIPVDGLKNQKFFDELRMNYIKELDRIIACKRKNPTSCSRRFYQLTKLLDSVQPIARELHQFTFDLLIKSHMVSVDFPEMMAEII
As to the kind of experiment: U2OS-AR-LBD/9xGal4UAS luciferase reporter cell line.

The next test has as its target T3, MR-LBD fused to Gal4-DBD (Homo sapiens, UniProt P08235).
T3 construct: MR-LBD was cloned by RT-PCR from total RNA isolated from HEK293 cells; expressed in transfected cells; host or cells: U2OS
T3 sequence (P08235 726-964 limits assumed): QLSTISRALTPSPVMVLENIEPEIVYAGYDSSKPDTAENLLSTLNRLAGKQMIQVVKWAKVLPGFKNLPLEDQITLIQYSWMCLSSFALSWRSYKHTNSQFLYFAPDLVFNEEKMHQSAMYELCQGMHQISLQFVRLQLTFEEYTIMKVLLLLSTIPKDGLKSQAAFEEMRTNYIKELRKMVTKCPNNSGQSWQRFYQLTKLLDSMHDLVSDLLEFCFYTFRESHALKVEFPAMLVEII
As to the kind of experiment: U2OS-MR-LBD/9xGal4UAS luciferase reporter cell line. The note with it: read-out: Log EC50 (converted).

Test [2] has as its target T4, human AR (full-length) (Homo sapiens, UniProt P10275).
T4 construct: expression vectors encoding full-length steroid receptors: pcDNA3-hAR and pcDNA3-hGR; host or cells: U2OS
T4 sequence (P10275 1-920): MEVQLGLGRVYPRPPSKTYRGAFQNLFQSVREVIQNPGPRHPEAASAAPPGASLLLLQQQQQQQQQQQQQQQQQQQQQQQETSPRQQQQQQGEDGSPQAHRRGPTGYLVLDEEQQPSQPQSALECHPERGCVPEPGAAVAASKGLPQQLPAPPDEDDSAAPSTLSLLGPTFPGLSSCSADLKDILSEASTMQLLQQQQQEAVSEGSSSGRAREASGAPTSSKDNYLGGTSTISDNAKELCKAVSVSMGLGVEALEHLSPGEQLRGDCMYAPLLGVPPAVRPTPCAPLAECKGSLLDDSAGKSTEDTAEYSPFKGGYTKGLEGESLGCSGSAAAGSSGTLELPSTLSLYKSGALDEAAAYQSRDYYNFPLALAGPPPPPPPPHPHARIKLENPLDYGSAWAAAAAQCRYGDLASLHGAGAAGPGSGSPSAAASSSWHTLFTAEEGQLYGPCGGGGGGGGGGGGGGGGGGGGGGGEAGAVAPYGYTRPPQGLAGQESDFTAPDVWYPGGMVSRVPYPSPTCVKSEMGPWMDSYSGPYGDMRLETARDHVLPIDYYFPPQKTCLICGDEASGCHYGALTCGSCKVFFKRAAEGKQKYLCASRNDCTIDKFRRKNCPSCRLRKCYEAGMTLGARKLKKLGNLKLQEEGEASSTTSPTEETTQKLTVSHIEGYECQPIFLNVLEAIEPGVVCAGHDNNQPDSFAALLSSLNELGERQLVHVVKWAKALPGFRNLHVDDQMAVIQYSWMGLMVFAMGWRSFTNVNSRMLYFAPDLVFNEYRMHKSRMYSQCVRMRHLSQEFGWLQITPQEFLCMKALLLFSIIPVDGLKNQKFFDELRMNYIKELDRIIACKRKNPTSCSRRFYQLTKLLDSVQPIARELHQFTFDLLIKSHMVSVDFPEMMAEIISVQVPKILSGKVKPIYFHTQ
As to the kind of experiment: U2OS-AR/MMTV luciferase reporter cell line (full-length receptor).

The next test deals with T5, human MR (full-length) (Homo sapiens, UniProt P08235).
T5 construct: expression vectors encoding full-length steroid receptors: pcDNA3-hAR, pcDNA3-hGR and pcDNA3-hMR; expressed in transfected cells; host or cells: U2OS
T5 sequence (P08235 1-984): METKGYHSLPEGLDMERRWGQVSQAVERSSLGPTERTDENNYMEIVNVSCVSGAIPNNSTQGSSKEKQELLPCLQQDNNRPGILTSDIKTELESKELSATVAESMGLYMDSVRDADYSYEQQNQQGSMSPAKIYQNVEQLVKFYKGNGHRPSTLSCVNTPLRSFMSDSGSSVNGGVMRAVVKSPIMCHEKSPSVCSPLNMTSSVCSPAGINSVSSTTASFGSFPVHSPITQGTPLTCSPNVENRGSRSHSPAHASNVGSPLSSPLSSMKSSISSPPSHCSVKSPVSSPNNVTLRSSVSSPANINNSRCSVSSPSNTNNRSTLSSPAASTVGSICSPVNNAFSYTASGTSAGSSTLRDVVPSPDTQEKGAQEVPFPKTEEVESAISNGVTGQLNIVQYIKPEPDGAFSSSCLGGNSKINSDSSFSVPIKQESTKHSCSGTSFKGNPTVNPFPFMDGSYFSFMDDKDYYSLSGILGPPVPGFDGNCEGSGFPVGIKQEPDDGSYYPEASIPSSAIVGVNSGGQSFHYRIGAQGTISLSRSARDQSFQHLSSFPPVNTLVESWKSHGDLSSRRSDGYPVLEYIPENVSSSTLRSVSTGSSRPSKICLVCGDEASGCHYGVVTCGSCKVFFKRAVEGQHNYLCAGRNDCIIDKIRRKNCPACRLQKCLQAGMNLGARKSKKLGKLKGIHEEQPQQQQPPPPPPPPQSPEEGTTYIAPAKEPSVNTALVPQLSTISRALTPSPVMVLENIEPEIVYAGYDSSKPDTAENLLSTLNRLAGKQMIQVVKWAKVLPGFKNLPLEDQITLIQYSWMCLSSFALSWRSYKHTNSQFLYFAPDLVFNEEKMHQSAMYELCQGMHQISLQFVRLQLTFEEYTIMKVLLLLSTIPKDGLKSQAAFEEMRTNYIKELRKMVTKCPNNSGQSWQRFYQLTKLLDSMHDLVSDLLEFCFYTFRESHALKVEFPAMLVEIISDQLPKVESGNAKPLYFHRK
In words: U2OS-MR/MMTV luciferase reporter cell line (full-length receptor). The note with it: read-out: Log EC50 (converted).

The target of test [3] is T6, ERβ-LBD fused to Gal4-DBD (Homo sapiens, UniProt Q92731).
T6 construct: region comprising ERβ-LBD and a piece of the hinge region; expressed in transfected cells; host or cells: U2OS
As to the kind of experiment: U2OS-ERβ-LBD/9xGal4UAS luciferase reporter cell line. The note with it: read-out: Log EC50 (converted).

Another test addresses T7, human ERβ (full-length) (Homo sapiens, UniProt Q92731).
T7 construct: expression vectors encoding full-length steroid receptors: pcDNA3-hERα and pcDNA3-ERβ; expressed in transfected cells; host or cells: U2OS
In words: U2OS-ERβ/3xERE luciferase reporter cell line (full-length receptor). The note with it: read-out: Log EC50 (converted).

Test [4] addresses T4, human AR (full-length). As to the kind of experiment: U2OS-AR/3xGRE luciferase reporter cell line (full-length receptor).

Structures are written as SMILES.

T6 sequence (Q92731 264-498 limits assumed): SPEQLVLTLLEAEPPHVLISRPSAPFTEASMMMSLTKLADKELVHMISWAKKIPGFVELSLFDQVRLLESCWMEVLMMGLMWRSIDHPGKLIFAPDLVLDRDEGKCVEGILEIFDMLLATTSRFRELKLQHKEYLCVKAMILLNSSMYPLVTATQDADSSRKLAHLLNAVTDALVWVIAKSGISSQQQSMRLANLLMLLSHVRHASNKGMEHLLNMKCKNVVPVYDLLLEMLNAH
T7 sequence (Q92731 whole entry): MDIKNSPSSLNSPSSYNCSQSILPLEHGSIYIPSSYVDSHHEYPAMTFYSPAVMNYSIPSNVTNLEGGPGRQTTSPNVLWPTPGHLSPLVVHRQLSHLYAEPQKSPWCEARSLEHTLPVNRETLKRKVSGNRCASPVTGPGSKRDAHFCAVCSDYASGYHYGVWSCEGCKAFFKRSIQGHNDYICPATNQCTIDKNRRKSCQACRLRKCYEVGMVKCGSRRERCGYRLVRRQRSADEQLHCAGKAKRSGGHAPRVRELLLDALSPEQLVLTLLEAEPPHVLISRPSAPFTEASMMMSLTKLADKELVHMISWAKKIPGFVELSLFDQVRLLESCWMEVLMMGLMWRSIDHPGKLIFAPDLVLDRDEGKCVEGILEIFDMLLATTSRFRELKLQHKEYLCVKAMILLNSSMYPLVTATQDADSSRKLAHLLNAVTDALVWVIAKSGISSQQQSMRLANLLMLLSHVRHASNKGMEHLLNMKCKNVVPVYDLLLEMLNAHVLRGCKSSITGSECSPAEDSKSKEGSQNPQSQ

As to `C[C@]12CCC(=O)C=C1CC[C@@H]1[C@@H]2[C@@H](O)C[C@@]2(C)[C@H]1CC[C@]2(O)C(=O)CO` [Cortisol, cortisol], the concentration for half-maximal inhibition (IC50) on PR-LBD fused to Gal4-DBD (antagonist mode, PR-LBD/9xGal4UAS, log10 of molar IC50, mean ± SEM, read-out: Log IC50 (converted)) was > 10 µM; in test [1], > 10 µM; at human AR (full-length) [2], > 10 µM. Besides, the EC50 at PR-LBD fused to Gal4-DBD (read-out: Log EC50 (converted)) was 6.17 µM; in test [1], > 10 µM; on MR-LBD fused to Gal4-DBD it was 0.0112 µM; at human AR (full-length) [2] it was > 10 µM; on human MR (full-length), 0.00631 µM; in test [3], > 10 µM. In addition, the concentration for a half-maximal effect (EC50) on human ERβ (full-length) and at human AR (full-length) [4] was > 10 µM each time.
